Data set [1] addresses Protein farnesyltransferase (Rattus norvegicus, UniProt Q02293+Q04631). Put plainly: Inhibition of Farnesyltransferase. Format: protein-complex assay.
Data set [2] can be described thus: Partition coefficient (logP). It is filed as physicochemical. The conditions noted are these: octanol/water.

The record followed here is ChEMBL document CHEMBL1135603, “Modeling of binding modes and inhibition mechanism of some natural ligands of farnesyl transferase using molecular docking” (J Med Chem, 2002).

`CC(C)CCCC(C)C1CCC2C3C(CC[C@]12C)[C@@](C)(CCC(=O)O)C(=O)C[C@@H]3C` (some centres not stated) registered a half-maximal inhibitory concentration (IC50) in data set [1] of 900 nM.
As to `CC(=O)O[C@H]1CC[C@]2(C=O)[C@H](CC[C@@]3(C)[C@H]2C=C(C)[C@@]2(C)C(O)=C(C)C(=O)[C@]23C(=O)O)C1(C)C` [ANDRASTATIN A], in data set [2], the logP is 1.7. In data set [1], this compound gave an IC50 of 24900 nM.
In data set [2], `CC(=O)O[C@H]1CC[C@]2(C)[C@H](CC[C@@]3(C)[C@H]2C=C(C)[C@@]2(C)C(O)=C(C)C(=O)[C@]23C(=O)O)C1(C)C` [ANDRASTATIN C] had a logP of 2.7. Further, the concentration for half-maximal inhibition (IC50) in data set [1] was found to be 13300 nM.
In the same order, the values of `C=C1C(=O)O[C@@H]2[C@H]3C[C@@]4(C)C=CC3(CC43C(=O)O[C@@H]4C5C(C)=CC(=O)C5=C(C)C[C@H](CC(=O)CC(C)C)C43)[C@](C)(O)CC[C@@H]12` (some centres not stated) [ARTEMINOLIDE] are 1.8 and 360 nM.
In the same order, the values of `CC(=O)O[C@H]1CC[C@]2(CO)[C@H](CC[C@@]3(C)[C@H]2C=C(C)[C@@]2(C)C(O)=C(C)C(=O)[C@]23C(=O)O)C1(C)C` [ANDRASTATIN B] are 1.6 and 47100 nM.
In data set [1], `CC(C)CCCC(C)C1CCC2C3CCC(=O)[C@](C)(C[C@@H](CC(=O)O)C(=O)O)C3CC[C@]12C` (some centres not stated) displayed an IC50 of 190 nM.
Consider `CC(C)=CCC/C(C)=C/CC/C(C)=C/CC/C(=C/C(=O)O)C(=O)O` [SCHIZOSTATIN Z], for which the lipophilicity (logP) in data set [2] was 1.4. The 50% inhibitory concentration (IC50) in data set [1] came to 300000 nM.
In the same order, the values of `C=C(CC[C@]12O[C@H](C(=O)O)[C@@](O)(C(=O)O)[C@](C(=O)O)(O1)[C@H](OC(=O)/C=C/[C@@H](C)C[C@@H](C)CC)[C@H]2O)[C@@H](OC(C)=O)[C@H](C)Cc1ccccc1` [ZARAGOZIC ACIDS A] are 2 and 12 nM.
Take `CC(C)=CCC/C(C)=C/CC/C(C)=C/CC/C(=C\C(=O)O)C(=O)O` [SCHIZOSTATIN E]: in data set [2], the lipophilicity (logP) is 1.3.
Turning to `COC(=O)C1=CC(CO)=COc2oc3cccc(O)c3c(=O)c21` [FUSIDIENOL], in data set [2], the lipophilicity (logP) was found to be 1.8. This compound showed an IC50 in data set [1] of 300 nM.

The term IC50 denotes the concentration that inhibits the measured activity by half. Higher therefore signals weaker potency. For orientation: logP means the decadic logarithm of the partition coefficient of the neutral form, usually between octanol and water. A low value points to lower lipophilicity.
